Experimental data reported in paper PMC4618636 (Pharmacology Research & Perspectives, 2015).
Where “and” joins values, the source holds several entries; their conditions need not be identical. Equal entries are not always repeated. Where two headings read alike, the source gives them in different places.

Key:
[1] = tested on: CYP3A4; conditions: for CYP3A4 RIS: mean of two experiments; for CYP3A4 % Rif: relative to positive control rifampicin, equation 2; for CYP3A4 Ind50: column headed Ind50 in Table 5
[2] = tested on: CYP2B6; conditions: for CYP2B6 Indmax: mean from two experiments; for CYP2B6 % PB: relative to positive control phenobarbital, equation 2
[3] = tested on: CYP3A4; conditions: in vivo induction value used for the RIS calibration; cited from earlier work
[4] = upcyte Donor 10-03, mean from two experiments
[5] = upcyte Donor 10-03, values of two experiments
[6] = upcyte Donor 151-03, mean from two experiments
[7] = upcyte Donor 151-03, values of two experiments
[8] = upcyte Donor 422A-03, mean from two experiments
[9] = upcyte Donor 422A-03, values of two experiments
[10] = upcyte Donor 653-03, mean from two experiments
[11] = upcyte Donor 653-03, values of two experiments
[12] = negative controls, any concentration tested (quinidine 0.1–250 μmol/L, flumazenil 0.05–50 μmol/L), data not shown

SMILES | CYP3A4 Indmax [1, 4] | CYP3A4 RIS ([1]; upcyte Donor 10-03) | CYP3A4 % Rif ([1]; upcyte Donor 10-03) | CYP3A4 Indmax [1, 6] | CYP3A4 RIS ([1]; upcyte Donor 151-03) | CYP3A4 % Rif ([1]; upcyte Donor 151-03) | CYP3A4 Indmax [1, 7] | CYP3A4 Indmax [1, 8] | CYP3A4 RIS ([1]; upcyte Donor 422A-03) | CYP3A4 % Rif ([1]; upcyte Donor 422A-03) | CYP3A4 Indmax [1, 9] | CYP3A4 Ind50 ([1]; upcyte Donor 653-03) | CYP3A4 Indmax [1, 10] | CYP3A4 RIS ([1]; upcyte Donor 653-03) | CYP2B6 Indmax ([2]; upcyte Donor 10-03) | CYP2B6 % PB ([2]; upcyte Donor 10-03) | CYP2B6 Indmax ([2]; upcyte Donor 151-03) | CYP2B6 % PB ([2]; upcyte Donor 151-03) | CYP2B6 Indmax ([2]; upcyte Donor 422A-03) | CYP2B6 % PB ([2]; upcyte Donor 422A-03) | other results
CCc1ccc(CCOc2ccc(CC3SC(=O)NC3=O)cc2)nc1 (stereo not drawn) [Pioglitazone, pioglitazone] | 4.3 fold | 0.0079 | 11% | 4.0 fold | 0.0040 | 48% | 4.0, 4.0 fold | 2.6 fold | 0.0040 | 14% | 2.3 fold and 2.8 fold | 91 | 9.2 fold | 0.0066 | 2.6 fold | 55% | 1.9 fold | 49% | 3.6 fold | 42% | CYP3A4 Indmax [1, 5]: 4.4 fold and 4.2 fold; CYP2B6 Indmax ([2]; upcyte Donor 653-03): 2.1 fold; CYP2B6 % PB ([2]; upcyte Donor 653-03): 54%; % Decrease in midazolam AUC [3]: 26%
NC(=O)N1c2ccccc2C=Cc2ccccc21 [Carbamazepine, carbamazepine] | 4.8 fold | 2.675 | 13% | 3.8 fold | 3.071 | 45% | 4.2 fold and 3.4 fold | 4.0 fold | 1.940 | 28% | 4.0 fold and 4.1 fold | 52 | 5.7 fold | 4.138 | 2.0 fold | 33% | 2.3 fold | 68% | 4.3 fold | 52% | CYP3A4 Indmax [1, 5]: 5.5 fold and 4.1 fold; CYP3A4 Indmax [1, 11]: 6.2 fold and 5.2 fold; CYP2B6 Indmax ([2]; upcyte Donor 653-03): 1.4 fold; CYP2B6 % PB ([2]; upcyte Donor 653-03): 17%; % Decrease in midazolam AUC [3]: 95%
C=C[C@H]1C[N@@]2CC[C@H]1C[C@@H]2[C@@H](O)c1ccnc2ccc(OC)cc12 [Quinidine, quinidine] | No induction | No induction | No induction | No induction | No induction | No induction | No induction | No induction | No induction | No induction | No induction | No induction | No induction | No induction | No induction | No induction | No induction | No induction | No induction | No induction | CYP3A4 induction [1, 12]: did not induce; CYP3A4 Indmax [1, 5]: No induction; CYP3A4 Indmax [1, 11]: No induction; CYP2B6 induction [2, 12]: did not induce; CYP2B6 Indmax ([2]; upcyte Donor 653-03): No induction; CYP2B6 % PB ([2]; upcyte Donor 653-03): No induction; % Decrease in midazolam AUC [3]: 0%
CCC1(c2ccccc2)C(=O)NC(=O)NC1=O [Phenobarbital, phenobarbital] | 23.3 fold | 0.685 | 74% | 5.2 fold | 2.211 | 68% | 5.5 fold and 5.0 fold | 11.3 fold | 1.727 | 95% | 10.7 fold and 11.8 fold | 120 | 11.8 fold | 2.198 | 3.9 fold | 100% | 2.9 fold | 100% | 7.3 fold | 100% | CYP3A4 Indmax [1, 5]: 23.8 fold and 22.9 fold; CYP3A4 Indmax [1, 11]: 13.0 fold and 10.5 fold; CYP2B6 Indmax ([2]; upcyte Donor 653-03): 3.1 fold; CYP2B6 % PB ([2]; upcyte Donor 653-03): 100%; % Decrease in midazolam AUC [3]: 70%
O=C1NC(=O)C(c2ccccc2)(c2ccccc2)N1 [Phenytoin, phenytoin] | 14.6 fold | 1.970 | 45% | 4.7 fold | 3.908 | 60% | 5.7 fold and 3.8 fold | 15.8 fold | 0.464 | 137% | 14.8 fold and 16.9 fold | 59 | 6.3 fold | 4.341 | 3.6 fold | 88% | 2.7 fold | 89% | 4.0 fold | 48% | CYP3A4 induction, % of rifampicin maximal induction ([1]; upcyte Donor 653-03): 120%; CYP3A4 Indmax [1, 11]: 7.4 fold and 5.2 fold; CYP2B6 Indmax ([2]; upcyte Donor 653-03): 2.8 fold; CYP2B6 % PB ([2]; upcyte Donor 653-03): 85%; % Decrease in midazolam AUC [3]: 94%
